# Test results from patent US20200308540A1, “METHODS OF MAKING, EXPANDING, AND USING A HUMAN PROGENITOR T CELL” (REGENTS OF THE UNIVERSITY OF MINNESOTA, priority 2017, published 2020).
# Columns and labels:
# [1] = test system: progenitor T cells (CD7^+ cells); assay: OP9-DL1 co-culture of SR1-/UM171-expanded cells to generate progenitor T cells; type: cell-based, human; details: for CD34 expression during culture with OP9-DL1 cells: cells expanded with compound, then OP9-DL1 culture
# Procedure: 1. SR1-expanded cells were suspended in 3 mL of OP9 media then seeded into a plate/flask containing irradiated OP9-DL1 cells at 80% confluency. The human cytokines FLT-3L, IL-7, and SCF were added from a 1,000×stock solution (to 1×final concentration). 2. Additional human cytokines FLT-3L, IL-7, and SCF were added from a 1,000×stock solution (to 1×final concentration) every other day during cell culture. 3. At day 5 and every 3 days to 4 days thereafter, media containing cells was removed, and cells and media were passed through a 70 μm sterile nylon mesh or a 40 μm cell strainer into a 50 mL conical tube. Passage through the mesh or strainer removes OP9-DL1 cells but not cells derived from UCBs. PBS (5 mL) was added, and the coculture was disaggregated by vigorous pipetting (using a 5 mL pipette) and passed through the same cell strainer. […] 4. The cells that passed through the cell strainer were centrifuged at 515-585×g for 5 minutes, the supernatant was removed, and the cells were suspended in 1 mL of OP9 media. At this stage, the cells were counted using a hemocytometer (FIG. 2), assayed by flow cytometry (FIG. 3), or co-culture was continued. For continued co-culture, the cells were transferred into a new 6-well plate already containing OP9-DL1 cells at 80% confluency in 2 mL of OP9 media, and human cytokines FLT-3L, IL-7, and SCF were added from a 1,000×stock solution (to 1×final concentration). 5. Cells were harvested as described in steps 3 and 4 at day 14 or day 21 and phenotype was assessed (see FIG. 2, FIG. 3, and FIG. 7) or the cells were injected into a mouse, as described in Example 5. OP9-DL1 were gamma-irradiated (100 Gy) and seeded onto tissue culture flasks. SR1-UCB and naïve-UCB were seeded 2:1 with OP9-DL1 to generate proT-cells after 13-14 days (Schmitt et al. Immunity. 2002; 17(6):749-756). To examine whether SR1-expanded HSPC could generate proT-cells in vitro, SR1-HSPC were co-cultured with OP9-DL1 (FIG. 11A). […] SR1-HSPC and naïve-HSPC co-cultures had similar % CD34^−CD7^+ cells, % CD7^+CD5^+ cells and % CD7^+CD1a^+ cells (FIG. 11C). […] From SR1-HSPC, an approximately 4-fold expansion of pro-Tcells was observed, similar to naïve-HSPC co-cultures (FIG. 11D). Combining SR1-expansion of HSPCs and use of OP9-DL1 co-cultures, a single starting HSPC yielded approximately 2×10^3 cells, a 200-fold greater expansion of SR1-proT cells over naïve proT-cells (FIG. 11E).
# NSG mice = assay: Engraftment of progenitor T cells in NSG mice (thymus, spleen); details: mouse, in vivo
# Procedure: ProT cells generated as described in Example 4 (after 21 days of co-culture) were injected into the liver of 2 day to 5 day old neonatal (NOD/SCID/γcnull (NSG)) mice (3 mice per group) at different cell concentrations/mouse (e.g., 2×10^5 cells, 5×10^5 cells, or 5×10^6 cells in 30 μL, volume). Optionally, 2×10^4 CD34-enriched HSCs, isolated from a UCB unit using the CliniMACS Cell Selection Device (Miltenyi Biotec, Gladbach, Germany) following manufacturer's instruction, were injected simultaneously.
# Twelve weeks later, mice were sacrificed, and engraftment of the in vitro-derived ProT cells into immunodeficient mice was assessed by flow cytometry analysis using phenotypic characterization of cells within the thymus and spleen of the recipient mouse. Useful markers for analysis include CD45, CD3/TCR, CD8, CD4, CD5, CD7, and CD1a (antibodies were acquired from eBioscience, San Diego, Calif.).
# As shown schematically in FIG. 8, SR1-expanded CD34^+ cells from a UCB unit were put into culture with OP9-DL1 cells for 14 days as described in Example 4. […] Four weeks later the mice were sacrificed and the cells' ability to engraft the thymus was assessed.
# Tprogenitors were generated from naïve UCB by co-culture with OP9-DL1 cells for 14 days as described in Example 4. […] Four weeks later the mice were sacrificed and the cells' ability to engraft the thymus was assessed. […]
# [2] = test system: CD34^+ hematopoietic stem/progenitor cells (HSPCs); assay: SR1 expansion culture of umbilical cord blood CD34+ HSPC (15 days); type: cell-based, human
# Procedure: Frozen UCB units were thawed using standard methods (Rubinstein et al., Proc Natl Acad Sci USA. 1995; 92:10119-10122). The UCB unit was enriched for CD34^+-cells using the CliniMACS Cell Selection Device (Miltenyi Biotec, Gladbach, Germany) following manufacturer's instructions, and the resulting CD34-enriched cell population was placed in expansion media at a concentration of 5×10^3 cells per milliliter (cells/mL). The expansion culture media included SCF, FLT-3L, TPO, IL-6 (each at 50 ng/ml) and SR1 (750 nM). Cells were cultured in expansion culture media without the addition of antibiotics for 15 days; cytokines were replenished and cells were resuspended at 5×10^3 cells/mL at day 7.
# HSC expansion media cultures (Boitano et al. Science. 2010; 329(5997):1345-1348) lasted 15 days prior to freezing.
# It was previously reported that naïve-UCB can generate 4- to 5-fold Tprog expansion (Awong et al. Blood. 2009; 114(5):972-982). At least 2×10^5 CD34^+ HSPC are needed for HSCT; but a single UCB unit averages 2.5×10^3 CD34^+ HSPC (Delaney et al. Expert Rev Hematol. 2010; 3(3):273-283). This Example describes an investigation of whether adding SR1 (0.75 μM) to expand CD34^+ HSPC Wagner et al. Cell Stem Cell. 2016; 18(1):144-155) could improve in vitro pro-T generation. CD34^+ HSPC culture reproducibility (FIG. 11A) was characterized. […] 2012; 10(2):120-136).
# patients = details: SR1-expanded cord blood; cited from earlier work
# CD34+ stem cells = details: median; Wagner et al. 2016; cited from earlier work
Structure (SMILES),CD34 expression during culture with OP9-DL1 cells [1],"thymus engraftment of cells treated with the compound, after OP9-DL1 co-culture (NSG mice)","fold enhancement of total nuclear cells ([2]; SR1 0.75 μM, by day 15)","fold expansion of CD34^+CD90^+ cells ([2]; SR1 0.75 μM, by day 15)","fold expansion of long-term reconstituting CD34^+CD38^− cells ([2]; SR1 0.75 μM, by day 15)",fold expansion of CD34^+ hematopoietic stem/progenitor cells (HSPCs) ([2]; SR1-expanded umbilical cord blood),cells yielded from a single starting HSPC ([1]; SR1-expansion of HSPCs combined with OP9-DL1 co-culture),"fold increase in ProT cells ([1]; SR1 expansion of human UCB, then co-culture with Notch ligand cell without SR1)",percentage of culture that is proT cell (CD7^+ cell) ([1]; flow cytometry after OP9-DL1 culture),"fold expansion of pro-T cells in OP9-DL1 co-culture ([1]; from SR1-HSPC, day 14)",fold greater expansion of SR1-proT cells over naïve proT-cells ([1]; normalized to initial CD34+ input cell number),median time to neutrophil engraftment (patients),median time to platelet engraftment (patients),fold expansion of CD34+ stem cells (CD34+ stem cells)
Cn1nnc(-c2ccc3c(c2)[nH]c2nc(Cc4ccccc4)nc(NC4CCC(N)CC4)c23)n1 (stereo not shown) [UM171],lose CD34 expression,able to engraft the thymus,,,,,,,,,,,,
"CC(C)n1cnc2c(NCCc3ccc(O)cc3)nc(-c3csc4ccccc34)nc21 [SR1, StemRegenin-1]",lose CD34 expression,able to engraft the thymus,252-746 fold,170-415 fold,157-558 fold,greater than 250 fold,approximately 2×10^3 cells,2000 fold,greater than 90%,approximately 4 fold,200 fold,15 days,49 days,330 fold
